Source: US5428029A, “Vitamin D3 fluorinated analogs” (Hoffmann-La Roche Inc., priority 1993, dated 1995)
Where two headings read alike, the source gives them in different places.

Columns and labels:
T47-D cells = assay: Tetrazolium based MTT assay, inhibition of cell growth, T47-D; conditions: Homo sapiens, T47D
Procedure: (§1) TETRAZOLIUM BASED MTT ASSAY
T47-D (breast ductal carcinoma) were grown in RPMI-1640 medium supplemented with 10 μg/ml bovine insulin and 10% fetal bovine serum (FBS).
(§2) Cells were grown in appropriate medium to late log phase (about 80% confluency). T47-D or MCF-7 cells were then trypsinized and seeded at 4,000 or 2,000 cells/well, respectively.
(§3) Tetrazolium Based MTT Assay:
(§4) At 24 hours post seeding, serial dilutions of ethanol-solubilized drugs are prepared in the same medium and added to triplicate wells at a final concentration of 1,000 to 0.1 nM and 0.1% ethanol. On days 3 to 7 post drug addition, 50 μl of a 5 mg/ml MTT solution (3-(4,5-dimethylthiazol-2-yl)-2,5-diphenyl tetrazolium bromide in phosphate-buffered saline) is added to each well and incubation is continued at 37° C. for 2.5 hours. The plates are then spun briefly by centrifugation at 800 xg for 5 minutes, medium is aspirated from wells, and 50 μl ETOH/well is added to dissolve the formazan formed during the incubation period with MTT. After a 15 minute shaking, the optical density is determined for each well in an automatic plate reader at 570 and 660 nm. Percent inhibition of cell growth is calculated by comparing optical densities of cells treated with test compounds to those of cells treated only with 0.1% ethanol. IC50 values are determined based on the Reed and Muench formula (Am. J. Hyg. 27:493-497 1938) and the results of two independent experiments are presented below: […]

MCF-7 cells = assay: Tetrazolium based MTT assay, inhibition of cell growth, MCF-7; conditions: Homo sapiens, MCF7, Exp. 2
Procedure: as §1
MCF-7 (breast adenocarcinoma) were grown in MEM (Eagle) supplemented with non-essential amino acids, 1 mM sodium pyruvate, […] bovine insulin and 10% FBS
as §2, §3, §4

sebaceous cells = assay: Inhibition of proliferation of sebaceous cells in vitro; format: cell-based; conditions: Homo sapiens, read-out: ED50 (amount of compound necessary to inhibit the proliferation of the sebaceous cells by 50%)
Procedure: Sebaceous cells were isolated from adult human sebaceous glands, derived from facial skin removed during cosmetic surgery. This method is described in an article by Doran et al. in J. Invest. Dermatol. 96:341-348 (1991).
The cells were cultured in Iscove's medium containing 10% fetal calf serum and 4 μg/ml dexamethasone on a layer of growth-arrested 3T3 mouse fibroblasts.
Cells were plated in medium without the test compound and then given the compound in fresh medium 24-48 hours after the initial plating. The cultures were given fresh medium, containing the test compound, every 48 hours. On the day of harvesting, the cultures were rinsed with 0.03% ethylenediamine tetraacetic acid (EDTA) in phosphate buffered saline (PBS), to remove only the 3T3 fibroblasts. The remaining sebocyte colonies were incubated in 0.05% trypsin/0.03% EDTA to create a single cell suspension of sebocytes. The cells were diluted, mixed vigorously to maintain a single cell suspension, and counted in a hemocytometer.
All compounds were handled in the following manner. Stock solutions were made up as 10^-2 M solutions in degassed 100% ethanol and stored at -20° C. in the dark. Solutions were never used after storage of more than a month. During experimental use the solutions, which had been aliquoted, were thawed once and used by diluting directly into complete medium to the appropriate concentration. […]

HL-60 tumor cell line = assay: HL-60 Differentiation Assay; format: cell-based, human; conditions: 4 days; for EC50: Homo sapiens, 96 h, HL-60 differentiation, read-out: Approximate ED50
Procedure: HL-60 Differentiation Assay:
The HL-60 tumor cell line was originally derived from a patient with promyleocytic leukemia and purchased from American Type Culture Collection (ATCC CCL240). […] For experimentation, cells were seeded at 0.9×10^6 cells per 25 cm^2 flask in medium supplemented with 0.25 mM sodium ascorbate. […] All compounds were handled in the following manner. Stock solutions were made of 10^-3 M solutions in ethanol and stored in amber vials overlaid with argon at -20° C. Stock solutions were diluted into medium at concentrations indicated. All flasks were supplemented with vehicle at a concentration of 0.1% ethanol. Control flasks were supplemented with vehicle alone at a concentration of 0.1% ethanol. Flasks were incubated upright for 4 days in 5% CO 2 at 37° C. On day 4, a 1 ml aliquot of cells was removed from the flasks, centrifuged for about 10 minutes, the media removed and the cells resuspended in a 0.2 ml of solution of nitroblue tetrazolium/phorbol 12 myristate 13-acetate (NBT/TPA) in media prepared on the day of enumeration as follows. Nitroblue tetrazolium was dissolved in media at 1 mg/ml. To this solution was added TPA to a final concentration of 100 ng/ml. This solution was kept in a covered vial on ice. The cells were suspended and incubated at 37° C. for 30 min. prior to transferring to ice. An aliquot was removed and the cells are counted using a hemocytometer. Cells without pigmented granules are judged to be undifferentiated while those containing blue black formazan (indicating conversion of NBT) granules were scored as differentiated. Results are expressed as percent differentiated cells by calculating the ratio of the number of dark cells per total number of cells counted.

[1] = tested on: human neonatal keratinocytes; assay: Human Keratinocyte Antiproliferative Assay; format: cell-based; conditions: for IC50: read-out: average ED50 (Dose that would obtain 50% of the number of cells as compared to the control)
Procedure: Human Keratinocyte Antiproliferative Assay
Cultures were obtained from neonatal foreskin epithelial keratinocytes using standard procedures.
Human neonatal foreskins were collected by circumcision and placed into tubes containing Dulbecco's minimum essential Media (DMEM) with 10% serum. Upon arrival at the laboratory, they were mechanically trimmed of excess dermis, and treated with a solution of trypsin/ethylenediamine tetraacetic acid (EDTA) (0.05%/0.02%) at 4° C. overnight. The epidermis was stripped from the dermis, agitated in buffered saline to remove basal keratinocytes and the stratum corneum later removed. […] The cultures are incubated in humidified chambers with 5% CO2 at 37° C. with refeeding fresh media 2 to 3 times per week.
Antiproliferation Assay Protocol:
Approximately twenty-four hours after passage, the cells were refed with fresh KGM media supplemented to 1.5 mM CaCl2 that contains test compound or vehicle. Solutions of test compounds were prepared as follows: 1 milligram quantities were received in amber glass vials and stored at -20° C. Sufficient 100% ethanol was added directly to vials to obtain a millimolar solution that was subsequently aliquoted into small amber vials, overlayed with argon gas and stored at -20° C. Each stock solution was thawed once, used and discarded. Stock solutions were used within 4 to 6 weeks. Aliquots from the stock solution were diluted directly into medium and then serially diluted from micromolar to picomolar concentrations. […] Control wells are supplemented with vehicle alone at the highest concentration such as 0.1% ethanol. At the termination of the experiment prior to the cultures reaching confluency, the cells were enumerated by the following procedure. Dishes were washed with phosphate buffered saline, and then incubated with trypsin/EDTA solution for 30 minutes. Cells were suspended and an aliquot placed into isotonic buffered saline and counted on an electronic particle counter (Coulter Counter). The counter was periodically calibrated for the correct size of keratinocytes. Each well was counted in triplicate.

[2] = Homo sapiens, Keratinocyte, read-out: % of Control

| SMILES | IC50 (T47-D cells; Exp. 1) | IC50 (T47-D cells; Exp. 2) | IC50 (MCF-7 cells) | Percent Positive Cells (HL-60 tumor cell line; Dose 0.1 nM) | Percent Positive Cells (HL-60 tumor cell line; Dose 0.3 nM) | Percent Positive Cells (HL-60 tumor cell line; Dose 1.0 nM) | Percent Positive Cells (HL-60 tumor cell line; Dose 10.0 nM) | Percent Positive Cells (HL-60 tumor cell line; Dose 100.0 nM) | EC50 (HL-60 tumor cell line) | Avg Cell No. ([1]; Dose 10 nM) | Avg Cell No. ([1]; Dose 100 nM) | Avg Cell No. ([1]; Dose 1000 nM) | other results |
| --- | --- | --- | --- | --- | --- | --- | --- | --- | --- | --- | --- | --- | --- |
| C[C@H](C/C=C/C(O)(C(F)(F)F)C(F)(F)F)C1=CC[C@H]2/C(=C/C=C3C[C@@H](O)C[C@H](O)C3)CCC[C@]12C [1,25-Dihydroxy-16,23E-diene-26,27-hexafluoro-19-norcholecalciferol] | 0.26 nM | 2.2 nM | 0.15 nM |  |  |  |  |  |  |  |  |  |  |
| C=C1/C(=C\C=C2/CCC[C@]3(C)C([C@H](C)C/C=C/C(O)(C(F)(F)F)C(F)(F)F)=CC[C@@H]23)C[C@@H](O)C[C@@H]1O [1,25-Dihydroxy-16,23E-diene-26,27-hexafluorocholecalciferol] | < 0.1 nM | 0.9 nM | 0.05 nM | 6.0% | 30.5% | 63.0% | 79.0% | 89.5% | ~0.6 nM | 2.29E+05 | 2.03E+05 | 3.04E+05 | IC50 (sebaceous cells; compared to vehicle treated control culture): < 1 nM; Avg Cell No. ([1]; Dose 0.0001 nM): 4.57E+05; Avg Cell No. ([1]; Dose 0.001 nM): 4.41E+05; Avg Cell No. ([1]; Dose 0.01 nM): 5.42E+05; Avg Cell No. ([1]; Dose 0.1 nM): 5.03E+05; Avg Cell No. ([1]; Dose 1.0 nM): 2.87E+05; activity at 100 fM ([1]; Homo sapiens, Keratinocyte, Dose 0.0001 nM, read-out: % of Control): 93.7%; activity at 1 pM ([1]; Homo sapiens, Keratinocyte, Dose 0.001 nM, read-out: % of Control): 90.3%; activity at 10 pM ([1]; Homo sapiens, Keratinocyte, Dose 0.01 nM, read-out: % of Control): 111%; activity at 0.0001 µM ([1]; Homo sapiens, Keratinocyte, Dose 0.1 nM, read-out: % of Control): 103%; activity at 0.001 µM ([1]; Homo sapiens, Keratinocyte, Dose 1.0 nM, read-out: % of Control): 58.7%; activity at 0.01 µM ([1]; Homo sapiens, Keratinocyte, Dose 10 nM, read-out: % of Control): 47%; activity at 0.1 µM ([1]; Homo sapiens, Keratinocyte, Dose 100 nM, read-out: % of Control): 41.6%; activity at 1 µM ([1]; Homo sapiens, Keratinocyte, Dose 1000 nM, read-out: % of Control): 6.23%; IC50 ([1]; Keratinocyte, human keratinocytes): 2 nM |
| C=C1/C(=C\C=C2/CCC[C@]3(C)C([C@H](C)CC#CC(O)(C(F)(F)F)C(F)(F)F)=CC[C@@H]23)C[C@@H](O)C[C@@H]1O [1,25-dihydroxy-16-ene-23 yne-26,27-hexafluoro-cholecalciferol, reference compound] | 0.63 nM | 0.95 nM | 0.42 nM |  |  |  |  |  |  |  |  |  |  |
| C=C1/C(=C\C=C2/CCC[C@]3(C)[C@@H]([C@H](C)CCCC(C)(C)O)CC[C@@H]23)C[C@@H](O)C[C@@H]1O [1,25-dihydroxy-cholecalciferol, 1,25-dihydroxycholecalciferol, reference compound] |  |  |  | 2.0% | 5.0% | 3.5% | 26.0% | 84.0% | ~25 nM | 4.60E+05 | 3.12E+05 | 7.19E+05 | IC50 (sebaceous cells): 50 nM; Avg Cell No. ([1]; Dose 30 nM): 3.90E+05; Avg Cell No. ([1]; Dose 300 nM): 2.51E+05; activity at 0.01 µM [1, 2]: 94.3%; activity at 0.03 µM [1, 2]: 79.9%; activity at 0.1 µM [1, 2]: 64%; activity at 0.3 µM [1, 2]: 51.4%; activity at 1 µM [1, 2]: 14.7%; IC50 ([1]; Homo sapiens, Keratinocyte): 300 nM |
| C=C1/C(=C\C=C2/CCC[C@]3(C)C([C@H](C)C/C=C/C(O)(C(F)(F)F)C(F)(F)F)=CC[C@@H]23)C[C@@H](O)C[C@@H]1F [1α-Fluoro-25-hydroxy-16,23E-diene-26,27-hexafluorocholecalciferol] |  |  | 0.38 nM |  |  |  |  |  |  |  |  |  |  |
